# In patent US8778389B2, “Medicament for the treatment of fungal infections particularly aspergillosis” (Sigma-Tau Industrie Farmaceutiche Riunite S.p.A., priority 2004, dated 2014):
# “Also recorded” adds a separate entry of the source. Read-outs that look alike come from different tables or passages of the source.
# Tests used:
# [1] = test system: CD4+, CD8+, Gr-1+, F4-80+ cells; assay: Cell recovery by FACS analysis of lung and spleen cells and blood leukocyte count in mice with invasive aspergillosis; format: in vivo
# Method: BM-transplanted mice, generated as described in detail in the legend to FIG. 1, were infected intranasally with 2×10^7 Aspergillus conidia and treated (+) or untreated (−) with 1 mg/kg PTX3 intraperitoneally from the day of infection and continuing for another 5 days. The numbers refer to the percentage of positive cells, reported by the FACS analysis in the lungs (A) and in the spleen (B), 3 or 6 days after infection.
# The phenotype of the various cell types was assessed using murine antibodies against the antigens indicated with rat anti-mouse antibodies conjugated with FITC from PharMingen (San Diego, Calif.). Prior to immunochemical identification, the FcR was saturated by incubation of the cells with 5% normal serum. Histotype antibodies were used as controls. The analysis was done by means of FACScan (Becton Dickinson, Mountain View, Calif.). The data obtained were evaluated as percentage of positive cells. The histograms are representative of one of four independent experiments.
# A. fumigatus [2] = format: in vivo, mice
# Method: Lethally irradiated C3H/HeJ mice were infused with T-cell-depleted BM cells of BALB/c mice (2×10^6) one week before intra-nasal infection with 2×10^7 Aspergillus conidia. The mice were treated with PTX3 or with the polyenes, at the doses and via the routes indicated, 5 days before (Pre-) or after (Post-) or concomitantly with infection (Con.), in each case repeating the administration for the next 5 days. Resistance to the infection was assessed as percentage survival. The fungal load in the lungs, brains and kidneys of the infected mice was quantified by serial plating on the Sabouraud dextrose medium of the lavages of the various organs and the results were expressed as colony forming units (CFU) (mean±SE) in samples taken from the organs indicated and performed at the time of death for the mice that died […] or otherwise at 6 days after infection. The groups consisted of 6 animals.
# BM-transplanted mice, generated as described in detail in the legend to FIG. 1, were infected intranasally with 2×10^7 Aspergillus conidia and treated intraperitoneally with each single agent alone or in combination, before (Pre-) or after (Post-) infection. The doses were: 0.04 and 0.2 mg/kg PTX3 before or after infection, respectively; 1 mg/kg AmBisome and 2 mg/kg Fungizone.
# Bone marrow (BM) cells from BALB/c donor mice were prepared by differential agglutination with soy agglutinin.
# The A. fumigatus strain was supplied by a fatal case of pulmonary aspergillosis at the Institute for Infectious Diseases of the University of Perugia (13). For infection, the mice were lightly anaesthetised by means of the inhalation of ethyl ether prior to the instillation of a suspension of 2×10^7 conidia/20 μL saline solution, which was delivered slowly through the nostrils using a micropipette with a sterile disposable tip. This procedure was repeated for 3 consecutive days. For reinfection, the mice surviving the primary intranasal (i.n.) infection were inoculated with 5×10^5 of Aspergillus conidia i.v. The fungal load in the lungs, brain and kidneys of the infected mice was quantified by serial plating on Sabouraud dextrose medium and the results (mean±SE) were expressed as colony forming units (CFU) in samples taken from the organs indicated. For selected experiments, the fungal growth was also evaluated by chitin analysis (10). For the histological analysis, the lung was removed and immediately fixed in formalin. Sections (3 to 4 μm) of tissues embedded in paraffin were stained with the periodic acid Schiff base procedure (13, 20).
# PTX3 (SIGMA-Tau, Pomezia, Rome, Italy) was purified by immunoaffinity chromatography from the culture supernatants of CHO cells CHO transfected with PTX3 and monitored for the absence of endotoxins (20). PTX3, amphotericin B deoxycholate (D-AmB, Fungizone, Bristol-Myers Squibb, Sermoneta, Italy) and liposomal amphotericin B (L-AmB, AmBisome, GILEAD, Milan, Italy) were diluted to the desired concentrations in sterile saline solution (PTX3) or in a 5% glucose-water solution.
# [3] = PTX3 levels in bronchoalveolar lavage fluids after i.n. administration; format: in vivo, mice; details: 0.5 mg/kg i.n.
# Method: To assess whether PTX3 may have a beneficial effect in otherwise susceptible mice, we used BM-transplanted mice whose substantial susceptibility to IA is well documented (15). The mice were subjected to treatments with different doses of PTX3 administered intranasally or intraperitoneally, before, concomitantly with or after infection. The doses were selected on the basis of preliminary experiments showing that PTX3 levels (at the dose of 0.5 mg/kg/i.n.) were high in bronchoalveolar lavage fluids for at least 24 h (from 70 to 25 ng/ml from 2 to 24 h) and that they were higher than those observed in mice with IA one day after infection (from 2 to 15 ng/ml) (20 and unpublished data). The survival parameters and fungal load in the lung and brain were then recorded and analysed in comparison with those obtained in mice treated with different doses of AmBisome or Fungizone. […] A dose-dependent effect was detected for this administration period, in that the protective efficacy of PTX3 was lost at the dose of 0.04 mg/kg. […] No difference was observed between the two administration routes. […] These characteristics were not observed in the mice treated with PTX3, the lungs of which were characterised by healing infiltrates of poly- and mononuclear inflammatory cells with no evidence of fungal growth or destruction of the bronchial wall (FIG. 3B).
# Aspergillus conidia [4] = assay: Conidia-killing activity of effector phagocytes from treated mice; format: in vivo; details: treated vs untreated mice; data not shown
# A. fumigatus [5] = assay: Lung histology (periodic acid Schiff) in mice with invasive aspergillosis; format: in vivo; details: 1 mg/kg i.p. from day of infection and for another 5 days; 6 days after infection
# Method: Periodic Schiff base sections were prepared from the lungs of the BM-transplanted mice infected with Aspergillus conidia either untreated (A) or treated (B) with 1 mg/kg PTX3 intraperitoneally from the day of infection and continuing for another 5 days. Numerous Aspergillus hyphae (arrows) infiltrate the pulmonary parenchyma, with extensive parenchymal destruction and strong signs of damage to the bronchial wall, and necrosis and poor cell recruitment are observed in the lungs of the untreated mice ([…]). […] Enlargement, ×100 in panels A and B; ×400 in insets.
# (§1) The A. fumigatus strain was supplied by a fatal case of pulmonary aspergillosis at the Institute for Infectious Diseases of the University of Perugia (13). […] For reinfection, the mice surviving the primary intranasal (i.n.) infection were inoculated with 5×10^5 of Aspergillus conidia i.v. The fungal load in the lungs, brain and kidneys of the infected mice was quantified by serial plating on Sabouraud dextrose medium and the results (mean±SE) were expressed as colony forming units (CFU) in samples taken from the organs indicated. For selected experiments, the fungal growth was also evaluated by chitin analysis (10). […]
# IFN-γ and IL-4 mRNA = assay: Cytokine gene expression on CD4+ spleen cells by real-time RT-PCR; format: in vivo, mice; details: prophylactic and therapeutic treatment
# Method: (§2) BM-transplanted mice, generated as described in detail in the legend to FIG. 1, were infected intranasally with 2×10^7 Aspergillus conidia and treated with 1 mg/kg PTX3 intraperitoneally both before infection (oblique line bars) and from the day of infection and continuing for another 3 days (dotted bars). At 3 days after infection, IL-12 p70 and IL-10 levels were determined by specific ELISA analyses in bronchoalveolar lavage fluids (A), the number of CD4^+ T spleen cells producing cytokines were numbered by ELISPOT analysis (B) and the gene expression of cytokine on CD4^+ spleen cells was determined by real-time PCR. Bars indicate standard errors. *P<0.05, infected vs. non-infected mice; **P<0.05, PTX3-treated vs untreated mice. Non-infected mice (white bars); infected mice (black bars).
# Total RNA (5 μg, extracted from CD4^+ T spleen cells using the RNeasy Mini Kit (QIAGEN S.p.A., Milan, Italy)) was retrotranscribed with Sensiscript reverse transcriptase (QIAGEN) according to the manufacturer's indications. The primers for PCR were obtained from Applied Biosystems (Foster City, Calif.). […] The data normalised with RNA 18S were expressed as relative mRNA of the cytokines examined (ΔΔCt) and compared with those of naive mice (10).
# A. fumigatus [6] = assay: In-vitro direct killing activity on the fungus; format: cell-based; details: data not shown
# Aspergillus conidia [7] = assay: Resistance to Aspergillus reinfection (i.v.) in cured BM-transplanted mice; format: in vivo; details: PTX3 concomitantly with primary infection; i.v. reinfection two weeks later; CFU 3 days after reinfection
# From the text: FIG. 2 illustrates the effect of the administration of PTX3 on resistance to Aspergillus reinfection. BM-transplanted mice, generated as described in detail in the legend to FIG. 1, were infected intranasally with 2×10^7 Aspergillus conidia one week after the BM transplant and treated concomitantly with PTX3 at the doses and via the administration routes indicated, starting on the day of infection and continuing for the next 5 days. Two weeks after the infection the surviving mice were reinfected intravenously with 5×10^5 Aspergillus conidia. The fungal growth (CFU) in the kidneys was evaluated 3 days after reinfection. * Indicates P<0.05 (treated vs. untreated mice).
# as §1
# [8] = test system: IL-12 p70, IL-10, TNF-α, IFN-γ, IL-4; assay: Cytokine levels (ELISA) and cytokine-producing CD4+ T spleen cells (ELISPOT) in mice with invasive aspergillosis; format: in vivo
# Method: as §2
# BM-transplanted mice, generated as described in detail in the legend to FIG. 1, were infected intranasally with 2×10^7 Aspergillus conidia and treated intraperitoneally with each individual agent alone or in combination after infection. The dosages were as described in detail in the legend to FIG. 6. […] levels (pg/ml) were determined in bronchoaleveolar lavage fluids 3 days after infection (A) and IFN-γ and IL-4 levels (pg/ml) in the culture supernatants of the antigen-activated spleen cells (B) performed at the time of death for those mice that died before, or otherwise at 6 days after infection. Bars indicate standard errors. (−, untreated mice). *P<0.05 treated vs. untreated mice; **P<0.05, combination treatment with PTX3+Fungizone (D-AmB) vs D-AmB alone; ***P<0.05, combination treatment with PTX3+AmBisome (L-AmB) vs each single treatment alone.
# The levels of cytokines in the bronchoalveolar lavage fluids and in the supernatants of the cultures of spleen cells stimulated with Aspergillus (9, 10), thermally […], were determined using the ELISA Kit (R&D Systems, Inc. Space Import-Export srl, Milan Italy). The detection limits of the analyses (pg/ml) were <16 for IL-12 p70, <32 for TNF-α, <10 for IFN-γ and <3 for IL-4 and IL-10. For the numbering of the CD4^+ T cells producing cytokines, ELISPOT analysis was used on purified CD4^+ T spleen cells (9, 10). The results were expressed as the mean number of cells producing cytokines (±SE) per 10^5 cells, calculated using replicates of the serial cell dilutions.
# [9] = 1 mg/kg i.p., 3 days after infection, vs untreated control
substance,measurement,setting,value
PTX3: long pentraxin PTX3 purified by immunoaffinity chromatography from culture supernatants of CHO cells transfected with PTX3,"numbers of CD4+ cells, CD8+ cells and Gr-1+ neutrophils in the lungs","[1]; 1 mg/kg i.p., FACS",significantly increased
same,"recovery of neutrophils and, partly, of CD4+ T cells in the spleens","[1]; 1 mg/kg i.p., FACS",observed
same,absolute number of circulating neutrophils,"[1]; blood leukocytes, data not shown",increased significantly
same,number of F4-80+ cells of the lungs or spleens,[1]; with or without PTX3 treatment,No difference
same,survival,A. fumigatus [2]; PTX3 administered after infection,increased the survival of the mice only at the higher dose
same,survival,"A. fumigatus [2]; PTX3 administered prophylactically, any of the doses assayed",≥ 60 days
same,fungal load in the lung,"A. fumigatus [2]; after infection, both doses",significantly reduced
same,fungal load in the brain,"A. fumigatus [2]; after infection, higher dose",significantly reduced
same,protective efficacy,"A. fumigatus [2]; concomitantly with infection, 0.04 mg/kg",lost
same,fungal load in the lungs and brain,"A. fumigatus [2]; prophylactic, particularly at highest dose (1 mg/kg), vs untreated",significantly reduced
same,time PTX3 levels were high in bronchoalveolar lavage fluids,[3],at least 24 h
same,conidia-killing activity of the effector phagocytes,Aspergillus conidia [4],higher
same,lung pathology,A. fumigatus [5],no evidence of parenchymal destruction or fungal growth; also recorded: improved
same,expression of IFN-γ mRNA,IFN-γ and IL-4 mRNA,significantly increased
same,expression of IL-4 mRNA,IFN-γ and IL-4 mRNA,reduced
same,direct killing activity on the fungus,A. fumigatus [6],ruled out any direct killing activity
same,fungal growth in the kidneys of reinfected mice,Aspergillus conidia [7],reduced
same,increase of IL-12 production,[8]; [9],approximately 4 fold
same,production of IL-10,[8]; [9],halved
same,frequency of CD4+ Th1 cells in the spleen,[8]; ELISPOT,increased
same,frequency of cells producing IL-4 in the spleen,[8]; ELISPOT,reduced
same,production of IL-4 by spleen cells,"[8]; antigen-stimulated spleen cell supernatants, suboptimal doses",greatly reduced
same,production of TNF-α,[8]; lungs of infected mice treated with PTX3,not increased
